The supplement of paper PMC10307832

Key:
Experiment in all cases: relative viability (nuclei count vs DMSO), 5 days (fraction); higher = more cells survive
[1] = system: NCI-H2126
In short: (§1)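 Lung cancer cell lines in 1536-well plates were dosed by pin tool the day after seeding, either with one drug alone or with a fixed anchor-drug dose plus five library-drug doses (not always all listed) in √10 steps. After 5 days, cells were fixed and their nuclei stained in one step (final 0.05% Triton X-100, 1% formaldehyde, 1 ug/ml Hoechst), then counted on 4× images. Relative viability is the nuclei count in treated wells divided by that in vehicle wells. Values are medians of duplicate plates.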

[2] = system: NCI-H1975
In short: as §1

[3] = system: NCI-H838
In short: as §1

[4] = system: LCLC-103H
In short: as §1

[5] = system: A-427
In short: as §1

[6] = system: NCI-H460
In short: as §1

[7] = system: ABC-1
In short: as §1

[8] = system: HARA
In short: as §1

[9] = system: NCI-H647
In short: as §1

[10] = system: RERF-LC-KJ
In short: as §1

[11] = system: NCI-H1944
In short: as §1

[12] = system: SW 900
In short: as §1

[13] = system: NCI-H1734
In short: as §1

[14] = system: LOU-NH91
In short: as §1

[15] = system: CAL-12T
In short: as §1

[16] = system: NCI-H727
In short: as §1

[17] = system: NCI-H1651
In short: as §1

[18] = system: NCI-H1666
In short: as §1

[19] = system: NCI-H596
In short: as §1

[20] = system: BEN
In short: as §1

[21] = system: NCI-H2085
In short: as §1

## CCNC(=O)c1noc(-c2cc(C(C)C)c(O)cc2O)c1-c1ccc(CN2CCOCC2)cc1 [Luminespib] + NC(=O)Nc1cc(-c2cccc(F)c2)sc1C(=O)N[C@H]1CCCNC1 [AZD7762] (partner 0.2 µM)
[1]; first compound 0.002 µM
  relative viability: 0.984
[1]; first compound 0.006325 µM
  relative viability: 1.01
[1]; first compound 0.06325 µM
  relative viability: 0.846
[1]; first compound 0.2 µM
  relative viability: 0.296
[2]; first compound 0.002 µM
  relative viability: 0.686
[2]; first compound 0.006325 µM
  relative viability: 0.735
[2]; first compound 0.02 µM
  relative viability: 0.348
[2]; first compound 0.06325 µM
  relative viability: 0.167
[2]; first compound 0.2 µM
  relative viability: 0.165
[3]; first compound 0.002 µM
  relative viability: 0.994
[3]; first compound 0.006325 µM
  relative viability: 0.89
[3]; first compound 0.02 µM
  relative viability: 0.775
[3]; first compound 0.06325 µM
  relative viability: 0.625
[3]; first compound 0.2 µM
  relative viability: 0.597
[4]; first compound 0.002 µM
  relative viability: 0.934
[4]; first compound 0.006325 µM
  relative viability: 0.699
[4]; first compound 0.02 µM
  relative viability: 0.639
[4]; first compound 0.06325 µM
  relative viability: 0.739
[4]; first compound 0.2 µM
  relative viability: 0.726
[5]; first compound 0.002 µM
  relative viability: 0.865
[5]; first compound 0.006325 µM
  relative viability: 0.722
[5]; first compound 0.02 µM
  relative viability: 0.557
[5]; first compound 0.06325 µM
  relative viability: 0.258
[5]; first compound 0.2 µM
  relative viability: 0.205
[6]; first compound 0.002 µM
  relative viability: 0.679
[6]; first compound 0.006325 µM
  relative viability: 0.628
[6]; first compound 0.02 µM
  relative viability: 0.717
[6]; first compound 0.06325 µM
  relative viability: 0.0326
[6]; first compound 0.2 µM
  relative viability: 0.0406
[7]; first compound 0.002 µM
  relative viability: 0.822
[7]; first compound 0.006325 µM
  relative viability: 0.737
[7]; first compound 0.02 µM
  relative viability: 0.715
[7]; first compound 0.06325 µM
  relative viability: 0.248
[7]; first compound 0.2 µM
  relative viability: 0.212
[8]; first compound 0.002 µM
  relative viability: 0.304
[8]; first compound 0.006325 µM
  relative viability: 0.291
[8]; first compound 0.02 µM
  relative viability: 0.511
[8]; first compound 0.06325 µM
  relative viability: 0.18
[8]; first compound 0.2 µM
  relative viability: 0.125
[9]; first compound 0.002 µM
  relative viability: 0.506
[9]; first compound 0.006325 µM
  relative viability: 0.538
[9]; first compound 0.02 µM
  relative viability: 0.176
[9]; first compound 0.06325 µM
  relative viability: 0.0596
[9]; first compound 0.2 µM
  relative viability: 0.0506
[10]; first compound 0.002 µM
  relative viability: 0.936
[10]; first compound 0.006325 µM
  relative viability: 0.998
[10]; first compound 0.02 µM
  relative viability: 0.683
[10]; first compound 0.06325 µM
  relative viability: 0.533
[10]; first compound 0.2 µM
  relative viability: 0.178
[11]; first compound 0.002 µM
  relative viability: 0.525
[11]; first compound 0.006325 µM
  relative viability: 0.426
[11]; first compound 0.02 µM
  relative viability: 0.307
[11]; first compound 0.06325 µM
  relative viability: 0.149
[11]; first compound 0.2 µM
  relative viability: 0.134
[12]; first compound 0.002 µM
  relative viability: 0.667
[12]; first compound 0.006325 µM
  relative viability: 0.752
[12]; first compound 0.02 µM
  relative viability: 0.396
[12]; first compound 0.06325 µM
  relative viability: 0.129
[12]; first compound 0.2 µM
  relative viability: 0.13
[13]; first compound 0.002 µM
  relative viability: 0.516
[13]; first compound 0.006325 µM
  relative viability: 0.497
[13]; first compound 0.02 µM
  relative viability: 0.28
[13]; first compound 0.06325 µM
  relative viability: 0.0991
[13]; first compound 0.2 µM
  relative viability: 0.124
[14]; first compound 0.002 µM
  relative viability: 0.797
[14]; first compound 0.006325 µM
  relative viability: 0.799
[14]; first compound 0.02 µM
  relative viability: 0.66
[14]; first compound 0.06325 µM
  relative viability: 0.322
[14]; first compound 0.2 µM
  relative viability: 0.318
[15]; first compound 0.002 µM
  relative viability: 0.698
[15]; first compound 0.006325 µM
  relative viability: 0.691
[15]; first compound 0.02 µM
  relative viability: 0.542
[15]; first compound 0.06325 µM
  relative viability: 0.188
[15]; first compound 0.2 µM
  relative viability: 0.182
[16]; first compound 0.002 µM
  relative viability: 0.53
[16]; first compound 0.006325 µM
  relative viability: 0.493
[16]; first compound 0.02 µM
  relative viability: 0.57
[16]; first compound 0.06325 µM
  relative viability: 0.36
[16]; first compound 0.2 µM
  relative viability: 0.323
[17]; first compound 0.002 µM
  relative viability: 0.445
[17]; first compound 0.006325 µM
  relative viability: 0.441
[17]; first compound 0.02 µM
  relative viability: 0.277
[17]; first compound 0.06325 µM
  relative viability: 0.446
[17]; first compound 0.2 µM
  relative viability: 0.181
[18]; first compound 0.002 µM
  relative viability: 0.828
[18]; first compound 0.006325 µM
  relative viability: 0.835
[18]; first compound 0.02 µM
  relative viability: 0.903
[18]; first compound 0.06325 µM
  relative viability: 0.78
[18]; first compound 0.2 µM
  relative viability: 0.589
[19]; first compound 0.002 µM
  relative viability: 1.11
[19]; first compound 0.006325 µM
  relative viability: 1.17
[19]; first compound 0.02 µM
  relative viability: 0.857
[19]; first compound 0.06325 µM
  relative viability: 0.934
[19]; first compound 0.2 µM
  relative viability: 0.879
[20]; first compound 0.002 µM
  relative viability: 0.687
[20]; first compound 0.006325 µM
  relative viability: 0.669
[20]; first compound 0.02 µM
  relative viability: 0.405
[20]; first compound 0.06325 µM
  relative viability: 0.516
[20]; first compound 0.2 µM
  relative viability: 0.272
[21]; first compound 0.002 µM
  relative viability: 0.923
[21]; first compound 0.006325 µM
  relative viability: 0.909
[21]; first compound 0.02 µM
  relative viability: 0.694
[21]; first compound 0.06325 µM
  relative viability: 0.389
[21]; first compound 0.2 µM
  relative viability: 0.245
